Experiment [1] relates to 5x-FAD mice. Description: Rotarod test. Format: in vivo. An excerpt: (§1) Hemizygous 5x-FAD transgenic mice (B6.Cg-Tg(APPSwFlLon, PSEN1*M146L*L286V) 6799Vas/Mmjax; MMRRC Strain: 034848-JAX) on congenic C57BL/6J genetic background were used for experiments. The 5x-FAD mice were genotyped using APP-specific qPCR probes to detect the transgene as per the protocol of Jackson Laboratory. Six months old 5x-FAD mice were randomly divided into three groups (n = 5), based on their body weights, with three males and two females in each group. We used mixed-cohort of males and females for our study to exclude any gender biased effect of IBC. Also, AD symptoms are more pronounced in females than in males ([Aggarwal and Mielke, 2023]), making it possible that males and females respond differently to the drug and treatment. […]
(§2) To check the effect of IBC on the behavior of 5x-FAD mice, open field test (OFT), rotarod (Make; Ugo Basile, rota-rod for mice 7650) and radial arm maze (Make; Ugo Basile) tests were performed. […] After acclimatizing mice with rotarod for 5 days, their latency to fall was calculated on the day of analysis. […] Distance traveled, speed, time spent in corner and center zones and mobile episodes were recorded through an automated video tracking system using AnyMaze software. […] The movement of mice was tracked with the help of automated AnyMaze software connected with a tracking camera and various memory retention parameters were assessed.

Experiment [2] relates to 5x-FAD mice. Description: Open field test. The experiment is classed as in vivo. Particulars: 25 and 50 mg/kg oral, vs 5x-FAD control.
Text: as §1, §2

The subject of a further experiment is LC3B and LAMP1. Description: LC3B and LAMP1 co-localization by confocal microscopy. Format: cell-based, C57BL/6J mice. The conditions noted are these: primary astrocytes, 10 μM, 24 h. On the procedure: Cells were seeded on coverslips in 6 well plates. After treatments, cells were fixed with 4% paraformaldehyde (PFA) for 15 min and permeabilized with 0.1% Triton-X 100 for 7 min. Blocking was done for 30 min with 2% BSA, followed by overnight incubation with primary antibody. Alexa fluor conjugated secondary antibody incubation was given to cells for 1 h for labeling. The nucleus was stained with 4,6-diamidino-2-phenylindole (DAPI) (1 μg/mL) for 10 min. Following staining, the coverslips were mounted on slides using mounting media (PBS and glycerol at a ratio of 1:9). Cells were washed thrice with PBS after each incubation. The images were acquired in a CQ1 high-throughput imaging system.

A further experiment relates to Aβ42. Description: Aβ clearance assay in primary astrocytes. Format: cell-based, C57BL/6J mice. The protocol: Aβ42-HiLyte fluor488 peptide was prepared following the manufacturer’s protocol (Anaspec Inc.). Primary astrocytes seeded on coverslips were treated with IBC (10 μM) or rapamycin (24 h). After 12 h, 2 μg/ml fluorochrome tagged (Hilyte fluor488) Aβ42 protein was added to cells for another 12 h. Bafilomycin A1 was given 3 h prior to experiment termination. After the end of the assay, cells were washed with PBS and cells were fixed with 4% PFA, permeabilized with Triton-X 100, and the nucleus was stained with DAPI, as mentioned above. Similarly, slides were prepared, and images were taken and analyzed in the CQ1 high throughput imaging system.
AMPK expression was knocked down from the cells by using siRNA against AMPK using FuGENE HD for 24 h. Primary astrocytes seeded in 6 well plates were incubated in OPTI-MEM media for 30 min prior to transfection. The transfection mixture was prepared and kept in sterile condition for 20 min before being added to the cells. Following this, cells were treated for NLRP3 inflammasome activation as described above.

A further experiment has as its system 5x-FAD mice hippocampus. Description: Immunoblotting of autophagy, NLRP3 inflammasome and neuroinflammation proteins in hippocampus. Format: in vivo. The conditions noted are these: 25 and 50 mg/kg. On the procedure:
Cellular lysates were prepared using radio immuno precipitation assay (RIPA) buffer for protein analysis. Briefly, the cell pellet was dissolved in RIPA buffer containing sodium fluoride, sodium orthovanadate, phenyl methyl sulfonyl fluoride (PMSF) and 1% protease inhibitor cocktail for 1 h with vertexing sample every 15 min. The supernatant was collected after high-speed centrifugation of samples for 20 min at 4°C. For analysis of proteins in mice hippocampi, the hippocampi isolated from mice brains was immediately washed with saline and stored in liquid nitrogen. For lysates preparation, tissue was homogenized in RIPA buffer substituted with sodium fluoride, sodium orthovanadate, phenyl methyl sulfonyl fluoride and 1% protease inhibitor cocktail. Total protein was measured using Bradford assay. Proteins were separated using SDS-PAGE and then transferred from gel to PVDF membrane. The protein of interest was labeled with a specific primary antibody overnight at 4°C. Further, the blot was incubated with corresponding HRP-conjugated secondary antibody for 1 h at room temperature. The band were visualized in the Genaxy Chemi Doc imaging system (Make: Syngene, Maryland, USA; Model: G: BOX, XT-4). Densitometry analysis of all the immunoblots was performed by using ImageJ software. Band density of proteins was normalized with β-actin. The phosphorylated proteins were normalized with their total forms.
Hemizygous 5x-FAD transgenic mice (B6.Cg-Tg(APPSwFlLon, PSEN1*M146L*L286V) 6799Vas/Mmjax; MMRRC Strain: 034848-JAX) on congenic C57BL/6J genetic background were used for experiments. The 5x-FAD mice were genotyped using APP-specific qPCR probes to detect the transgene as per the protocol of Jackson Laboratory. Six months old 5x-FAD mice were randomly divided into three groups (n = 5), based on their body weights, with three males and two females in each group. We used mixed-cohort of males and females for our study to exclude any gender biased effect of IBC. Also, AD symptoms are more pronounced in females than in males ([Aggarwal and Mielke, 2023]), making it possible that males and females respond differently to the drug and treatment. Considering this, it is important to show effect of IBC on both sexes. At this age, Aβ deposition and neuroinflammation has already progressed in these mice. We have used IBC as a curative drug rather than a preventive drug. Prior to the initiation of the study, all the animals were acclimatized for 1 week under standard laboratory conditions; animals were drug naive with no prior procedures performed. All testing were performed from 1 to 4 p.m. IBC was orally (OD) given to two groups at different doses, 25 mg/kg (1% DMSO, 2% Tween 80, 19% PEG200, and 78% distilled water) and 50 mg/kg (1% DMSO, 5% Tween 80, 19% PEG200% and 75% distilled water) using oral gavage. 5x-FAD control mice were administered with vehicle (1% DMSO, 5% Tween 80, 19% PEG200% and 75% distilled water). For behavioral and Immunohistochemistry assays, experimenters were blinded to animal identity while carrying out the procedures.

Turning to `CC(C)=CCc1c(O)ccc(C(=O)/C=C/c2ccc(O)cc2)c1O` [IBC, isobavachalcone], the “latency to fall from rotarod” value in the experiment with 5x-FAD mice [1] (25 mg/kg oral) was determined as 92 s. Moreover, the “latency to fall from rotarod” value in the experiment on 5x-FAD mice [1] (50 mg/kg oral) stood at 118 s. In addition, in the experiment on 5x-FAD mice [2], the “exploratory behavior in open field” value was “improved exploratory behavior”. Also, the “co-localization of LC3B and LAMP1” value with LC3B and LAMP1 is “proximity of LC3B and LAMP1”. Besides, the “intracellular Aβ level” value with Aβ42 (10 μM with bafilomycin A1) is recorded as “increased”. In addition, the “effect on clearance of Aβ” value in the experiment on Aβ42 (10 μM with siAMPK) is recorded as “complete reversal”. The “intracellular Aβ42-HiLyte fluor488 fluorescence” value with Aβ42 (10 μM, 24 h, vs cells with Aβ alone) is recorded as “significantly low fluorescence”. Also, the “GFAP expression (western blot)” value in the experiment on 5x-FAD mice hippocampus is given as “decreased expression”. For the same molecule, in the experiment with 5x-FAD mice hippocampus (western blot), the ASC level result is listed as “significant abrogation”, the ATG7 expression entry is “increased expression”, the CASP1 level result is “significant abrogation” and the IBA1 expression entry is given as “decreased expression”. Further, in the experiment with 5x-FAD mice hippocampus (western blot), the SQSTM1 expression entry is “significantly decreased”, the “cleavage of IL-1β” value is “reduced cleavage” and the pAMPK expression entry is given as “increased expression”.
